The source made the active and inactive calls.
Assays:
[1] = target: T1, Isoleucine--tRNA ligase, mitochondrial (Homo sapiens, UniProt Q9NSE4)
T1 sequence (Q9NSE4 whole entry): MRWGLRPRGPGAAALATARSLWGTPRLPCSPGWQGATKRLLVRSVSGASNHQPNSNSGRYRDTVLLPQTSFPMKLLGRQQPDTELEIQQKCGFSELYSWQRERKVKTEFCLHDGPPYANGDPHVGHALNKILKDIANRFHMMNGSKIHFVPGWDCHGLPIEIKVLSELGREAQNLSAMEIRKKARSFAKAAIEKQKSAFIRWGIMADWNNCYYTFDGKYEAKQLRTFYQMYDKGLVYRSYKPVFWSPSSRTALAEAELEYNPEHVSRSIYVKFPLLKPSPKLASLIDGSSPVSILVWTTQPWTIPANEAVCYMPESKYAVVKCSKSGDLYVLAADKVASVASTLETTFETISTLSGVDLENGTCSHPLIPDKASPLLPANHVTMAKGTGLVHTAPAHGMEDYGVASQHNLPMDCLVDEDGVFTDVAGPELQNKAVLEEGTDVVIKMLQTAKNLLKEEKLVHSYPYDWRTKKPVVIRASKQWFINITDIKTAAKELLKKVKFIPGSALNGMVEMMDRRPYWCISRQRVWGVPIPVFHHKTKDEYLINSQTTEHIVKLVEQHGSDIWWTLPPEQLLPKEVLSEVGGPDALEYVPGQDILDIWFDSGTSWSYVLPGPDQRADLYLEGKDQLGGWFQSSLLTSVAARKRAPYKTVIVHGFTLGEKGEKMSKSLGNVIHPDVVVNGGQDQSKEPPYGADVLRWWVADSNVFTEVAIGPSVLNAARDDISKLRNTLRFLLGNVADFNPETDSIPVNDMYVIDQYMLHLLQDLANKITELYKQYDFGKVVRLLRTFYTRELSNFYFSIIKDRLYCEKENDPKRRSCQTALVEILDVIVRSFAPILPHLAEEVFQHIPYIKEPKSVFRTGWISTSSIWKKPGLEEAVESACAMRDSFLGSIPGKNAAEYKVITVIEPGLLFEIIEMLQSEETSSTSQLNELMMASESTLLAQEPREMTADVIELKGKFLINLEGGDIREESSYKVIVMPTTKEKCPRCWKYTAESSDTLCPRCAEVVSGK

[2] = target: Dual specificity protein kinase CLK2 (Homo sapiens, UniProt P49760)
[3] = target: T2, Thyroid hormone receptor-associated protein 3 (Homo sapiens, UniProt Q9Y2W1)
T2 sequence (Q9Y2W1 whole entry): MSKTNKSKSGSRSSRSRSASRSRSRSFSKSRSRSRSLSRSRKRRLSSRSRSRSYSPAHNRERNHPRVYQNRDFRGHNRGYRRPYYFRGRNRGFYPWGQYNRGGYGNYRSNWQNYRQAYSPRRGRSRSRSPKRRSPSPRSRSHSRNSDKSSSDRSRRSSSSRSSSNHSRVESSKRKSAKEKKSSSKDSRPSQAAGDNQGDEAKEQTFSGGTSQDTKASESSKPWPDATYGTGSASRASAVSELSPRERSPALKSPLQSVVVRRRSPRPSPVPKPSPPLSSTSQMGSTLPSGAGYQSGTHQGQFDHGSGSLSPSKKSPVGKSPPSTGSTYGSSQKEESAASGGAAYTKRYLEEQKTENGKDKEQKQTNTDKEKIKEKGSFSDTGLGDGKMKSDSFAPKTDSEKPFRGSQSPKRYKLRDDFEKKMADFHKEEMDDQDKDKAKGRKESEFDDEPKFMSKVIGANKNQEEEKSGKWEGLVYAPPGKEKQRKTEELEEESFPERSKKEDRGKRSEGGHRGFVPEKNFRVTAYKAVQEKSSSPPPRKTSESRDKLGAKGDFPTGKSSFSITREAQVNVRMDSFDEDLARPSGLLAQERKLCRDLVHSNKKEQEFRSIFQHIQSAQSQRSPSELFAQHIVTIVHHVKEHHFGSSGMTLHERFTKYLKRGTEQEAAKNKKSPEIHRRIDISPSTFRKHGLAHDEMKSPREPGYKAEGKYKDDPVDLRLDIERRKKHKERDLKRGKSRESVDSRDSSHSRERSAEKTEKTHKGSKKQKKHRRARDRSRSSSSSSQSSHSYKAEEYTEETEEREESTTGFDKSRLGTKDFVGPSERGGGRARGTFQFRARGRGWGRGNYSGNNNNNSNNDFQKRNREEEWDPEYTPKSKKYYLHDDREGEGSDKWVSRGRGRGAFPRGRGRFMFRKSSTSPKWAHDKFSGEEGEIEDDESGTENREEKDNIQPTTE

[4] = target: Epidermal growth factor receptor (Homo sapiens, UniProt P00533)
[5] = target: Serine/threonine-protein kinase MRCK gamma (Homo sapiens, UniProt Q6DT37)
[6] = target: Serine/threonine-protein kinase PLK1 (Homo sapiens, UniProt P53350)
[7] = target: Protein kinase C theta type (Homo sapiens, UniProt Q04759)
[8] = target: T3, Phosphatidylinositol 5-phosphate 4-kinase type-2 alpha (Homo sapiens, UniProt P48426)
T3 sequence (P48426 whole entry): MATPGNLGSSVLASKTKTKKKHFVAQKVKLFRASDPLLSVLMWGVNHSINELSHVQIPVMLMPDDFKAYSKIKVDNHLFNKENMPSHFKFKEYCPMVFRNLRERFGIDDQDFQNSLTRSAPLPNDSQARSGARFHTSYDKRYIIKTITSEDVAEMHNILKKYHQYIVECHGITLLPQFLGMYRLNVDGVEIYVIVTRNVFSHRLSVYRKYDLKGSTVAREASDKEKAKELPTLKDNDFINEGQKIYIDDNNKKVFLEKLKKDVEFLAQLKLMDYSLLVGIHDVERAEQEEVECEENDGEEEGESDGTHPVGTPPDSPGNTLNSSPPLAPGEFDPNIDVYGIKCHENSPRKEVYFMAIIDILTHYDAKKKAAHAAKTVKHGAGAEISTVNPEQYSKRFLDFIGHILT

[9] = target: Proto-oncogene tyrosine-protein kinase receptor Ret (Homo sapiens, UniProt P07949)
[10] = target: Phosphatidylethanolamine-binding protein 1 (Homo sapiens, UniProt P30086)

Measured: Kd
Further: in the data inactive means no Kd found up to 30 µM.

Epidermal growth factor receptor, sequence (P00533 whole entry): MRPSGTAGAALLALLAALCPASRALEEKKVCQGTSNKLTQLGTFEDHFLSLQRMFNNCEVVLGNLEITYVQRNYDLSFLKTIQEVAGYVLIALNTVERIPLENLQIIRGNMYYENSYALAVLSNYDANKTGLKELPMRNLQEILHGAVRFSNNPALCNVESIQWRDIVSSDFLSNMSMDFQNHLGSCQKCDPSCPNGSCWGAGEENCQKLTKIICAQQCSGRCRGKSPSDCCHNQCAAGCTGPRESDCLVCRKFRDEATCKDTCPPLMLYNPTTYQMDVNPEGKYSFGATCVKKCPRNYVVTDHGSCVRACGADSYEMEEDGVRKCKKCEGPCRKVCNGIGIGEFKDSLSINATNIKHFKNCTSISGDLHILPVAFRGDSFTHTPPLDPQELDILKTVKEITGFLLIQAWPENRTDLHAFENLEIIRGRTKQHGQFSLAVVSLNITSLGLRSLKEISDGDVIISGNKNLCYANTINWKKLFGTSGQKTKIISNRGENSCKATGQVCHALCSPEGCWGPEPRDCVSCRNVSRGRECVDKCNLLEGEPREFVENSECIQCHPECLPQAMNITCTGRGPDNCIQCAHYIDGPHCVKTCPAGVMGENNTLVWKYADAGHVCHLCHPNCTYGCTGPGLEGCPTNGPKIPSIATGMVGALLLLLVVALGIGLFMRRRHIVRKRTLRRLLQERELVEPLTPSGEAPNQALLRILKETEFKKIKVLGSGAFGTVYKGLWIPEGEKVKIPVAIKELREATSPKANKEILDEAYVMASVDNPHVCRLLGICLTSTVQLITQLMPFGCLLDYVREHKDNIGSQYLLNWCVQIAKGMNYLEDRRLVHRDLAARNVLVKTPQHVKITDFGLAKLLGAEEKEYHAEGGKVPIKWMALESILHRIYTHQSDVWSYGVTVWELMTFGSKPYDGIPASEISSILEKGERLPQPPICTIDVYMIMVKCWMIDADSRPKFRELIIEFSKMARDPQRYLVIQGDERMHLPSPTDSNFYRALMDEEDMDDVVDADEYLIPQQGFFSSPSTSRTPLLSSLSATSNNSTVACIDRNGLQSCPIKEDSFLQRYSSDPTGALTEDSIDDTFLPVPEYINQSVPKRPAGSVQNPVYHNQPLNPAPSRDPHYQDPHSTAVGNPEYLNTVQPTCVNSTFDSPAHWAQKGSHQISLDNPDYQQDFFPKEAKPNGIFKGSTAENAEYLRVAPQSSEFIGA
Serine/threonine-protein kinase MRCK gamma, sequence (Q6DT37 whole entry): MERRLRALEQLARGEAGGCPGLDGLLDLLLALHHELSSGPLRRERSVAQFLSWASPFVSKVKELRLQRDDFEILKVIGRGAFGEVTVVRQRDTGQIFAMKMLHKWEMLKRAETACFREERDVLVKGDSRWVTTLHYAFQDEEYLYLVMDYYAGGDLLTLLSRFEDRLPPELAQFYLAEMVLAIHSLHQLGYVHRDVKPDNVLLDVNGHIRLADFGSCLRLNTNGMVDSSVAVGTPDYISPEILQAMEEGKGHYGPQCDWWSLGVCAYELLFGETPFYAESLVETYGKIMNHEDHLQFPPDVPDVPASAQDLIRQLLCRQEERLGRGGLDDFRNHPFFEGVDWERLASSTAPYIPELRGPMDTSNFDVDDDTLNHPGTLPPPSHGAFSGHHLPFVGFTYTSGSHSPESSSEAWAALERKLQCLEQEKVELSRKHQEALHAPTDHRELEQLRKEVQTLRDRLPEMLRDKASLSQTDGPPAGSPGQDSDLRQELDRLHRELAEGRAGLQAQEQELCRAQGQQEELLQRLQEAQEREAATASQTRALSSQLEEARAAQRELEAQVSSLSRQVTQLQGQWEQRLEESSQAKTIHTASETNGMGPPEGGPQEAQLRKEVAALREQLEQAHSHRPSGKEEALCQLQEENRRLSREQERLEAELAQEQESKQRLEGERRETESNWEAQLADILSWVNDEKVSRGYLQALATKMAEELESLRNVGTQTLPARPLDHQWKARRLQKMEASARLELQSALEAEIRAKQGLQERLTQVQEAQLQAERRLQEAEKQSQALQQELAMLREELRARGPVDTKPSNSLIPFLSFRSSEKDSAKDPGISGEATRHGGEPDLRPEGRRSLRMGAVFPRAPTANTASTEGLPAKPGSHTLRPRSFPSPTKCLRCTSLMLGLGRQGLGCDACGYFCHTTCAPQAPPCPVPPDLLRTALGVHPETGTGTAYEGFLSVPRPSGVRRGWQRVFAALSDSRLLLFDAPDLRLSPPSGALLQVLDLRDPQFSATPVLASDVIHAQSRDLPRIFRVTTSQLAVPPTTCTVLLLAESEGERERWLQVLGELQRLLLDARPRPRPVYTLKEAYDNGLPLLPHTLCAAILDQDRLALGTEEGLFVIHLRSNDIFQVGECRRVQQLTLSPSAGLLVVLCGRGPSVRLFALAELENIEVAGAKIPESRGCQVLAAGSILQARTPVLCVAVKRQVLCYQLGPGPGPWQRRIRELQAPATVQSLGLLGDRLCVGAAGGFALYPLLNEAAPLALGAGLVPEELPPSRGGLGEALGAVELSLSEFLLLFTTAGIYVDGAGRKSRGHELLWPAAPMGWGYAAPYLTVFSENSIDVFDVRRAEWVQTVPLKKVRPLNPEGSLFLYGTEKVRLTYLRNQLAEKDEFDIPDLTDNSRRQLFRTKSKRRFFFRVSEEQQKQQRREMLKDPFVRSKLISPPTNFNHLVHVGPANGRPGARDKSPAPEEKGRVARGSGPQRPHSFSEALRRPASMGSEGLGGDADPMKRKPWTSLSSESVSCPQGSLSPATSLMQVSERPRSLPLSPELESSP
Serine/threonine-protein kinase PLK1, sequence (P53350 whole entry): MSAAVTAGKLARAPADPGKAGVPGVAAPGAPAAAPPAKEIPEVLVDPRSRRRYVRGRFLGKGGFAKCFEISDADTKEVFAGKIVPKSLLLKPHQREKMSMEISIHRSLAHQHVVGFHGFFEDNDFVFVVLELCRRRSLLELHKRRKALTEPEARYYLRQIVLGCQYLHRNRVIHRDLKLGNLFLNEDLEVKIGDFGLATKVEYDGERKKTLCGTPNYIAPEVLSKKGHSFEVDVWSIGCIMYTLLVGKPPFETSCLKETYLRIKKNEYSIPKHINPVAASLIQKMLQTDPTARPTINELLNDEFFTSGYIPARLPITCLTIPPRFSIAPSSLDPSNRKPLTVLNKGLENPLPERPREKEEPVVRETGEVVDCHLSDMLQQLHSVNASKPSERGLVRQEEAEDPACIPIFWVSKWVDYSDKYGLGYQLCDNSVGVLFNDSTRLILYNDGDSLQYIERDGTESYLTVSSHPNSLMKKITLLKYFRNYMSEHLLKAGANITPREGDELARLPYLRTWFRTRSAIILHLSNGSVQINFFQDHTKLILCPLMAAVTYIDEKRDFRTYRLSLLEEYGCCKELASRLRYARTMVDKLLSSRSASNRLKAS
Dual specificity protein kinase CLK2, sequence (P49760 whole entry): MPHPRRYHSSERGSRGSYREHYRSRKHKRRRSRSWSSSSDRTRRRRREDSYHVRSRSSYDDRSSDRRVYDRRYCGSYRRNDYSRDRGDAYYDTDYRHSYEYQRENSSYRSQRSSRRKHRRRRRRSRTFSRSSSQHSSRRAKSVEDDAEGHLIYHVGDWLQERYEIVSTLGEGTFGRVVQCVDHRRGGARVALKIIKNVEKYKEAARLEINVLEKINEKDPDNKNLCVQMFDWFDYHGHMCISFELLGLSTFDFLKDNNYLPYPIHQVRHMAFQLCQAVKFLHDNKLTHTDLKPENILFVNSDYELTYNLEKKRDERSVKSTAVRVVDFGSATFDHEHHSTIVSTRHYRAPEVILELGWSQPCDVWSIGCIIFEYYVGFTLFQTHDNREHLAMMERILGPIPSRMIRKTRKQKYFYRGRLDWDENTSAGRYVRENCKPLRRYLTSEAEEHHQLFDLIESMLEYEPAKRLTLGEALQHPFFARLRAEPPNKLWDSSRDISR
Protein kinase C theta type, sequence (Q04759 whole entry): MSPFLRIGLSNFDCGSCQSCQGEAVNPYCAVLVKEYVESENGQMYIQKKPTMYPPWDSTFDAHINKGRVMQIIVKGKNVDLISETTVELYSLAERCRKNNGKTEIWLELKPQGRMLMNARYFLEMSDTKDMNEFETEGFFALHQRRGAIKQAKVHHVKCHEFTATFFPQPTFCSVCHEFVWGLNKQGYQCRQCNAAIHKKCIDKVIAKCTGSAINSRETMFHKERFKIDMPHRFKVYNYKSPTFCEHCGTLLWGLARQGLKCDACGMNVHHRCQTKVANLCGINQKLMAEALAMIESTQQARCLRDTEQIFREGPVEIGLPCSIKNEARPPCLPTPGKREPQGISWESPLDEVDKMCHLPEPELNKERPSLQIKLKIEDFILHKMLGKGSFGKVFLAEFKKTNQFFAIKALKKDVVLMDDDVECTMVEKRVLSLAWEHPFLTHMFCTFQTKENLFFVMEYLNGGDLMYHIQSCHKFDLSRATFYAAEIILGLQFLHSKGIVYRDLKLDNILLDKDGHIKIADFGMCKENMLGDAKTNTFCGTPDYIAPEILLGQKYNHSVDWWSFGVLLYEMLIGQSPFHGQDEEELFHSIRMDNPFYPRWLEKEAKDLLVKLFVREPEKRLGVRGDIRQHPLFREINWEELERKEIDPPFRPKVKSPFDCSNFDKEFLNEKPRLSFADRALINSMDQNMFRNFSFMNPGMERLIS
Phosphatidylethanolamine-binding protein 1, sequence (P30086 whole entry): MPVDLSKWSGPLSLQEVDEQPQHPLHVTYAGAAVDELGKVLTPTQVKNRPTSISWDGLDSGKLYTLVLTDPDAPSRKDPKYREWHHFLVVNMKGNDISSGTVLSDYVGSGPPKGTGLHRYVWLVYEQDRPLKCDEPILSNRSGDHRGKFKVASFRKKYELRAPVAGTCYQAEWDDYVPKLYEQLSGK

CC(=O)Nc1cccc(-n2c(=O)n(C3CC3)c(=O)c3c(Nc4ccc(I)cc4F)n(C)c(=O)c(C)c32)c1 [TRAMETINIB]
inactive: [1] > 30 µM | [2] > 30 µM | [3] > 30 µM | [4] > 30 µM | [5] > 30 µM | [6] > 30 µM | [7] > 30 µM | [8] > 30 µM | [9] > 30 µM | [10] > 30 µM

CC[C@@H]1C(=O)N(C)c2cnc(Nc3ccc(C(=O)N[C@H]4CC[C@H](N5CCN(CC6CC6)CC5)CC4)cc3OC)nc2N1C(C)C [VOLASERTIB]
inactive: [1] > 30 µM | [2] > 30 µM | [3] > 30 µM | [4] > 30 µM | [5] > 30 µM | [6] > 30 µM | [7] > 30 µM | [8] > 30 µM | [9] > 30 µM | [10] > 30 µM
